Tests used:
[1] = system: blood sugar (glucose levels in the blood); assay: Glycemic index by oral induced hyperglycemia protocol (HGPVO / OGTT); format: in vivo; settings: analyses repeated on two subjects, traditional commercial white sugar as control (FIG. 9)
[2] = system: HbA1c; assay: HbA1c level calculated from average blood sugar level; format: in vivo; settings: HbA1C 7% = 1.5 g/L average blood sugar, 1% HbA1C = 0.30 g/litre
Description: Its consumption is therefore intended for healthy subjects and also for type 2 diabetics. […] For the new natural white granulated or powdered slow sugar of this invention the following result is obtained: [formula] For traditional white commercial sugar and for comparison purposes we obtain the following result: [formula]

`OC[C@H]1O[C@@](CO)(O[C@H]2O[C@H](CO)[C@@H](O)[C@H](O)[C@H]2O)[C@@H](O)[C@@H]1O` [commercial white natural sugar, sucrose] was tested, and the “glycemic index, in words” value [1] was “very high” and the “increases HbA1c level by” value [2] was 9.2%.

From patent US20260242404A1, “INTERGLYCAN ESTERS OF SUCROSE DICARBOXYLATE AND FRUCTOFURANURONATE, PROCESS FOR THE MANUFACTURE THEREOF, AND USE THEREOF AS A HYPOGLYCEMIC SLOW SUGAR” (priority 2022, published 2026)
